According to the supplement of paper PMC4862054:

What was measured:
Settings in all cases: incubation time: 72 h
MDA-MB-468 [1] = assay: drug sensitivity score (DSS), CellTox Green (DSS (AUC-based score)); higher = stronger drug effect (viability inhibition or cytotoxicity); extreme values may be limits of the assay
Outline: (§1)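 The drug sensitivity score was computed from the area under the fitted dose-response curve. Breast cancer cell lines in 20 µl suspension went into 384-well plates holding compound at 5 concentrations (10-fold steps over a 10,000-fold, compound-specific range) for 72 h of incubation. CellTox Green fluorescence (485/520 nm) was read before CellTiter-Glo luminescence, the latter after 10 min at room temperature, and each plate was normalised to 0.1 % DMSO and a positive kill control.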

HCC1937 [2] = assay: as above
Outline: as §1

MDA-MB-231 [3] = assay: as above
Outline: as §1

HCC1599 [4] = assay: as above
Outline: as §1

CAL-85-1 [5] = assay: as above
Outline: as §1

MFM-223 = assay: as above
Outline: as §1

MCF-10A = assay: as above
Outline: as §1

MDA-MB-468 [6] = assay: normalised viability (% of control), CellTiter-Blue; higher = more viable cells (about 100 = DMSO control)
Outline: (§2)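 Each entry is normalised viability at a single listed concentration within a series. It comes from breast cancer cell lines incubated 72 h with compound in 384-well plates, then measured with CellTiter-Blue fluorescence at 560/590 nm. Every plate was normalised between vehicle (100) and a positive kill control (0).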

HCC1143 = assay: as above
Outline: as §2

HCC1937 [7] = assay: as above
Outline: as §2

MDA-MB-231 [8] = assay: as above
Outline: as §2

CAL-148 = assay: as above
Outline: as §2

HDQ-P1 = assay: as above
Outline: as §2

MDA-MB-436 = assay: as above
Outline: as §2

HCC1599 [9] = assay: as above
Outline: as §2

CAL-120 = assay: as above
Outline: as §2

Hs578T = assay: as above
Outline: as §2

SK-BR-3 = assay: as above
Outline: as §2

CAL-85-1 [10] = assay: as above
Outline: as §2

DU-4475 = assay: as above
Outline: as §2

MDA-MB-453 = assay: as above
Outline: as §2

COCC1(CO)C(=O)C2CCN1CC2 (stereo unspecified) [Prima-1 Met]
Settings	drug sensitivity score
CAL-85-1 [5]	0
HCC1599 [4]	0
HCC1937 [2]	1.24
MCF-10A	0
MDA-MB-231 [3]	0
MDA-MB-468 [1]	0
MFM-223	0

normalised viability [%]
Settings	3 nM	10 nM	30 nM	100 nM	1000 nM	10000 nM
CAL-85-1 [10]	91.3	–	78.1	103	–	–
CAL-120	–	85	–	–	99.8	102
CAL-148	93.3	–	93	89.2	–	–
DU-4475	109	–	88.4	122	–	–
HCC1143	–	82.3	–	–	73.2	75.2
HCC1599 [9]	–	93.4	–	–	120	106
HCC1937 [7]	–	97.8	–	–	73.8	75.4
HDQ-P1	91.3	–	81.2	74.4	–	–
Hs578T	–	110	–	–	106	88.9
MDA-MB-231 [8]	–	95.4	–	–	92.7	88.7
MDA-MB-436	–	86.9	–	–	81.9	104
MDA-MB-453	95.4	–	107	98	–	–
MDA-MB-468 [6]	–	104	–	–	115	104
SK-BR-3	–	96.1	–	–	101	90.8

COC(=O)c1ccc2c(c1)NC(=O)/C2=C(\Nc1ccc(N(C)C(=O)CN2CCN(C)CC2)cc1)c1ccccc1 [BIBF 1120]
normalised viability [%]
Settings	3 nM	10 nM	30 nM	100 nM	1000 nM	10000 nM
CAL-85-1 [10]	97.1	–	98.3	99.6	–	–
CAL-120	–	82.6	–	–	75.5	29.7
CAL-148	93.5	–	99	97.7	–	–
DU-4475	94.6	–	100	91	–	–
HCC1143	–	91	–	–	103	56.7
HCC1599 [9]	–	90.9	–	–	95.9	65.1
HCC1937 [7]	–	144	–	–	130	84
HDQ-P1	124	–	117	124	–	–
Hs578T	–	102	–	–	111	34
MDA-MB-231 [8]	–	97.6	–	–	120	2.46
MDA-MB-436	–	120	–	–	122	43.8
MDA-MB-453	112	–	101	104	–	–
MDA-MB-468 [6]	–	108	–	–	112	17.6
SK-BR-3	–	101	–	–	91.8	42.8
